Assays:
AZD4320 = compound: CN(CC[C@H](CSC1=CC=CC=C1)NC2=C(C=C(C=C2)S(=O)(=O)NC(=O)C3=CC=C(C=C3)N4CCC(CC4)[C@H](C5=CC=CC=C5C6=CC=C(C=C6)Cl)O)S(=O)(=O)C(F)(F)F)CCO [AZD4320]; details: max 1 µM
Summary of the method: (§1)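 Cancer cell lines were seeded into 1536-well plates in 7.5 μl medium (DMEM/F12 or RPMI, 10% FBS), held 24 hours at 37°C and 5% CO2, and dosed for 72 hours with final DMSO typically 0.2%. Luminescence from CellTiter-Glo 2.0, scaled between blank-well and DMSO-well means, served as viability. The single-agent IC50 was obtained from dose-response fits with a non-linear mixed effects model, each fit being a two-parameter logistic curve.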

Doxorubicin = compound: COc1cccc2c1C(=O)c1c(O)c3c(c(O)c1C2=O)C[C@@](O)(C(=O)CO)C[C@@H]3O[C@H]1C[C@H](N)[C@H](O)[C@H](C)O1 [Doxorubicin]; details: max 1 µM
Summary of the method: as §1

Gefitinib = compound: COc1cc2ncnc(Nc3ccc(F)c(Cl)c3)c2cc1OCCCN1CCOCC1 [Gefitinib]; details: max 10 µM
Summary of the method: as §1

Venetoclax = compound: CC1(C)CCC(CN2CCN(c3ccc(C(=O)NS(=O)(=O)c4ccc(NCC5CCOCC5)c([N+](=O)[O-])c4)c(Oc4cnc5[nH]ccc5c4)c3)CC2)=C(c2ccc(Cl)cc2)C1 [Venetoclax]; details: max 1 µM
Summary of the method: as §1

Dasatinib = compound: CC1=C(C(=CC=C1)Cl)NC(=O)C2=CN=C(S2)NC3=CC(=NC(=N3)C)N4CCN(CC4)CCO [Dasatinib]; details: max 2 µM
Summary of the method: as §1

Palbociclib = compound: CC(=O)c1c(C)c2cnc(Nc3ccc(N4CCNCC4)cn3)nc2n(C2CCCC2)c1=O [Palbociclib]; details: max 10 µM
Summary of the method: as §1

AZD5363 = compound: C1CN(CCC1(C(=O)N[C@@H](CCO)C2=CC=C(C=C2)Cl)N)C3=NC=NC4=C3C=CN4 [AZD5363]; details: max 10 µM
Summary of the method: as §1

Olaparib = compound: O=C(c1cc(Cc2n[nH]c(=O)c3ccccc23)ccc1F)N1CCN(C(=O)C2CC2)CC1 [Olaparib]; details: max 10 µM
Summary of the method: as §1

Taselisib = compound: Cc1nc(-c2cn3c(n2)-c2ccc(-c4cnn(C(C)(C)C(N)=O)c4)cc2OCC3)n(C(C)C)n1 [Taselisib]; details: max 10 µM
Summary of the method: as §1

Paclitaxel = compound: CC(=O)O[C@H]1C(=O)[C@@]2(C)[C@H]([C@H](OC(=O)c3ccccc3)[C@]3(O)C[C@H](OC(=O)[C@H](O)[C@@H](NC(=O)c4ccccc4)c4ccccc4)C(C)=C1C3(C)C)[C@]1(OC(C)=O)CO[C@@H]1C[C@@H]2O [Paclitaxel]; details: max 3 µM
Summary of the method: as §1

AZD0156 = compound: CN(C)CCCOc1ccc(-c2ccc3ncc4c(c3c2)n(C2CCOCC2)c(=O)n4C)cn1 [AZD0156]; details: max 3 µM
Summary of the method: as §1

AZD5991 = compound: Cc1c2c(nn1C)CSCc1cc(n(C)n1)CSc1cc(c3ccccc3c1)OCCCc1c(C(=O)O)n(C)c3c-2c(Cl)ccc13 [AZD5991]; details: max 1 µM
Summary of the method: as §1

Lapatinib = compound: CS(=O)(=O)CCNCc1ccc(-c2ccc3ncnc(Nc4ccc(OCc5cccc(F)c5)c(Cl)c4)c3c2)o1 [Lapatinib]; details: max 10 µM
Summary of the method: as §1

AZD6738 = compound: C[C@@H]1COCCN1C2=NC(=NC(=C2)C3(CC3)[S@](=N)(=O)C)C4=C5C=CNC5=NC=C4 [AZD6738]; details: max 10 µM
Summary of the method: as §1

AZD5153 = compound: COc1nnc2ccc(N3CCC(c4ccc(OCCN5CCN(C)C(=O)[C@H]5C)cc4)CC3)nn12 [AZD5153]; details: max 1 µM
Summary of the method: as §1

Carboplatin = compound: C1CC(C1)(C(=O)[O-])C(=O)[O-].N.N.[Pt+2] [Carboplatin]; details: max 10 µM
Summary of the method: as §1

MK-2206 = compound: NC1(c2ccc(-c3nc4ccn5c(=O)[nH]nc5c4cc3-c3ccccc3)cc2)CCC1 [MK-2206]; details: max 10 µM
Summary of the method: as §1

Etoposide = compound: COc1cc([C@@H]2c3cc4c(cc3[C@@H](O[C@@H]3O[C@@H]5CO[C@@H](C)O[C@H]5[C@H](O)[C@H]3O)[C@H]3COC(=O)[C@H]23)OCO4)cc(OC)c1O [Etoposide]; details: max 10 µM
Summary of the method: as §1

Trametinib = compound: CC(=O)Nc1cccc(-n2c(=O)n(C3CC3)c(=O)c3c(Nc4ccc(I)cc4F)n(C)c(=O)c(C)c32)c1 [Trametinib]; details: max 1 µM
Summary of the method: as §1

[1] = compound: O=C(Nc1ccc2[nH]nc(-c3ccncc3)c2c1)[C@@H]1CCN(CC(=O)N2CCN(c3ccc(-c4ncccn4)cc3)CC2)C1; details: max 5 µM
Summary of the method: as §1

Crizotinib = compound: C[C@@H](Oc1cc(-c2cnn(C3CCNCC3)c2)cnc1N)c1c(Cl)ccc(F)c1Cl [Crizotinib]; details: max 10 µM
Summary of the method: as §1

Savolitinib = compound: C[C@@H](c1ccc2nccn2c1)n1nnc2ncc(-c3cnn(C)c3)nc21 [Savolitinib]; details: max 1 µM
Summary of the method: as §1

AZD7648 = compound: Cc1cc2ncnn2cc1Nc1ncc2c(n1)n(C1CCOCC1)c(=O)n2C [AZD7648]; details: max 10 µM
Summary of the method: as §1

AZD8186 = compound: C[C@@H](Nc1cc(F)cc(F)c1)c1cc(C(=O)N(C)C)cc2c(=O)cc(N3CCOCC3)oc12 [AZD8186]; details: max 10 µM
Summary of the method: as §1

Prexasertib = compound: COc1cccc(OCCCN)c1-c1cc(Nc2cnc(C#N)cn2)n[nH]1 [Prexasertib]; details: max 1 µM
Summary of the method: as §1

Alisertib = compound: COc1cc(Nc2ncc3c(n2)-c2ccc(Cl)cc2C(c2c(F)cccc2OC)=NC3)ccc1C(=O)O [Alisertib]; details: max 10 µM
Summary of the method: as §1

5-Fluorouracil = compound: O=c1[nH]cc(F)c(=O)[nH]1 [5-Fluorouracil]; details: max 20 µM
Summary of the method: as §1

AZD1390 = compound: CC(C)n1c(=O)n(C)c2cnc3cc(F)c(-c4ccc(OCCCN5CCCCC5)nc4)cc3c21 [AZD1390]; details: max 0.3 µM
Summary of the method: as §1

AZD1775 = compound: C=CCn1c(=O)c2cnc(Nc3ccc(N4CCN(C)CC4)cc3)nc2n1-c1cccc(C(C)(C)O)n1 [AZD1775]; details: max 3 µM
Summary of the method: as §1

SN-38 = compound: CCc1c2c(nc3ccc(O)cc13)-c1cc3c(c(=O)n1C2)COC(=O)[C@]3(O)CC [SN-38]; details: max 0.3 µM
Summary of the method: as §1

AZD2811 = compound: CCN(CCO)CCCOc1ccc2c(Nc3cc(CC(=O)Nc4cccc(F)c4)[nH]n3)ncnc2c1 [AZD2811]; details: max 1 µM
Summary of the method: as §1

SRA737 = compound: N#Cc1cnc(Nc2cc(NC[C@H]3CNCCO3)c(C(F)(F)F)cn2)cn1 [SRA737]; details: max 10 µM
Summary of the method: as §1

Gemcitabine = compound: Nc1ccn([C@@H]2O[C@H](CO)[C@@H](O)C2(F)F)c(=O)n1 [Gemcitabine]; details: max 0.3 µM
Summary of the method: as §1

Selumetinib = compound: Cn1cnc2c(F)c(Nc3ccc(Br)cc3Cl)c(C(=O)NOCCO)cc21 [Selumetinib]; details: max 10 µM
Summary of the method: as §1

SG3199 = compound: CC1=CN2[C@@H](C1)C=NC3=CC(=C(C=C3C2=O)OC)OCCCCCOC4=C(C=C5C(=C4)N=C[C@@H]6CC(=CN6C5=O)C)OC [SG3199]; details: max 0.001 µM
Summary of the method: as §1

| Cell Line | IC50, cell viability 72 h (AZD4320) [nM] | IC50, cell viability 72 h (Doxorubicin) [nM] | IC50, cell viability 72 h (Gefitinib) [nM] | IC50, cell viability 72 h (Venetoclax) [nM] | IC50, cell viability 72 h (Dasatinib) [nM] | IC50, cell viability 72 h (Palbociclib) [nM] | IC50, cell viability 72 h (AZD5363) [nM] | IC50, cell viability 72 h (Olaparib) [nM] | IC50, cell viability 72 h (Taselisib) [nM] | IC50, cell viability 72 h (Paclitaxel) [nM] | IC50, cell viability 72 h (AZD0156) [nM] | IC50, cell viability 72 h (AZD5991) [nM] | IC50, cell viability 72 h (Lapatinib) [nM] | IC50, cell viability 72 h (AZD6738) [nM] | IC50, cell viability 72 h (AZD5153) [nM] | IC50, cell viability 72 h (Carboplatin) [nM] | IC50, cell viability 72 h (MK-2206) [nM] | IC50, cell viability 72 h (Etoposide) [nM] | IC50, cell viability 72 h (Trametinib) [nM] | IC50, cell viability 72 h [1] [nM] | IC50, cell viability 72 h (Crizotinib) [nM] | IC50, cell viability 72 h (Savolitinib) [nM] | IC50, cell viability 72 h (AZD7648) [nM] | IC50, cell viability 72 h (AZD8186) [nM] | IC50, cell viability 72 h (Prexasertib) [nM] | IC50, cell viability 72 h (Alisertib) [nM] | IC50, cell viability 72 h (5-Fluorouracil) [nM] | IC50, cell viability 72 h (AZD1390) [nM] | IC50, cell viability 72 h (AZD1775) [nM] | IC50, cell viability 72 h (SN-38) [nM] | IC50, cell viability 72 h (AZD2811) [nM] | IC50, cell viability 72 h (SRA737) [nM] | IC50, cell viability 72 h (Gemcitabine) [nM] | IC50, cell viability 72 h (Selumetinib) [nM] | IC50, cell viability 72 h (SG3199) [nM] |
| --- | --- | --- | --- | --- | --- | --- | --- | --- | --- | --- | --- | --- | --- | --- | --- | --- | --- | --- | --- | --- | --- | --- | --- | --- | --- | --- | --- | --- | --- | --- | --- | --- | --- | --- | --- |
| SK-LMS-1 (Other Solid Carcinomas) | > 1000 | 511 | > 10000 | > 1000 | > 2000 | > 10000 | > 10000 | > 10000 | 4110 | 16.1 | > 3000 | > 1000 | > 10000 | > 10000 | > 1000 | > 10000 | > 10000 | 4430 | 484 | 4530 | 9410 | > 1000 | > 10000 | 7780 | 386 | 8330 | > 20000 | > 300 | 1630 | 8.12 | > 1000 | > 10000 | 17.4 | > 10000 | > 1 |
| HCC38 (Breast Carcinoma) | 503 | > 1000 | > 10000 | > 1000 | > 2000 | > 10000 | > 10000 | > 10000 | > 10000 | 296 | > 3000 | > 1000 | > 10000 | > 10000 | > 1000 | > 10000 | > 10000 | > 10000 | > 1000 | > 5000 | > 10000 | > 1000 | > 10000 | > 10000 | 80.4 | > 10000 | > 20000 | > 300 | 430 | 69.5 | > 1000 | > 10000 | 172 | > 10000 | > 1 |
| MEG-01 (Chronic Myelogenous Leukemia) | 309 | 540 | > 10000 | > 1000 | < 2 | > 10000 | > 10000 | > 10000 | > 10000 | 158 | > 3000 | > 1000 | > 10000 | 812 | 83.2 | > 10000 | > 10000 | 4890 | 38.9 | 1220 | 828 | > 1000 | > 10000 | > 10000 | 8.09 | 3120 | > 20000 | > 300 | 292 | 74.4 | 776 | 1180 | 51.4 | 3410 | > 1 |
| CS1 (Chondrosarcoma) | > 1000 | 641 | > 10000 | > 1000 | > 2000 | > 10000 | > 10000 | > 10000 | > 10000 | 114 | > 3000 | > 1000 | > 10000 | > 10000 | > 1000 | > 10000 | > 10000 | > 10000 | > 1000 | > 5000 | 9480 | > 1000 | > 10000 | > 10000 | 77.2 | 4520 | > 20000 | > 300 | 2030 | 18.6 | > 1000 | > 10000 | > 300 | > 10000 | > 1 |

From the supplement of paper PMC11061612
